Laboratory results reported in US20240400521A1, “QUINAZOLINE COMPOUND, COMPOSITION, AND APPLICATION THEREOF” (BEIJING SCITECH-MQ PHARMACEUTICALS LIMITED, priority 2021, published 2024).

Assays:
EGFR^WT kinase = target: T1, EGFR^WT kinase (Homo sapiens, UniProt P00533); assay: EGFR^WT kinase assay (ULight peptide / Eu-PT66 antibody detection); assay type: biochemical
T1 construct: purchased Carna Biosciences 08-115
From the text: (§1) Reagents and consumables: ULight™-labeled Ploy GT Peptide (Perkin Elmer, Cat. No. TRF-0100-M); ULight™-labeled JAK-1 (Try1023) Peptide (Perkin Elmer, Cat. No. TRF-0121-M); Eu-W1024-labeled Anti-Phosphotyrosine Antibody (PT66) (Perkin Elmer, Cat. No. AD0068); 10×Detection Buffer (Perkin Elmer, Cat. No. CR97-100); HER2 Kinase (Carna Biosciences, Cat. No. 08-016); EGFR kinase (Carna Biosciences, Cat. No. 08-115); HEPES (GIBCO, Cat. No. 15630-080); EGTA (Sigma, Cat. No. 03777-10G); EDTA (Sigma, Cat. No. EDS-100G); MgCl2 (Sigma, Cat. No. 63069-100ML); DTT (Sigma, Cat. No. 43816-10ML); Tween-20 (Sigma, Cat. No. P7949-100ML); DMSO (Life Science, Cat. No. 0231-500ML); 384-well plates (Perkin Elmer, Cat. No. 607290); multifunctional plate reader (Perkin Elmer, Cat. No. Envision)
(§2) Preparation of compound solution: The assay compound was dissolved in DMSO to form a 10 mM stock solution. Prior to use, the compound was diluted to 0.25 mM in DMSO (100 times the final concentration of the diluent) and then subjected to a 3-fold concentration gradient dilution to obtain a total of 11 concentrations. The solution was diluted with buffer to a diluent with 4× the final concentration when the drug was added.
(§3) EGFR^WT kinase assay: buffer was prepared, and 3.48 nM 4× EGFR kinase solution, 600 μM 4× ATP solution, and 400 nM 4×ULight™-labeled JAK-1 (Try1023) Peptide substrate solution was prepared using the buffer. After the preparation was completed, the enzyme was mixed with different concentrations of compounds pre-prepared by dilution, and the mixture was left to stand at room temperature for 5 min. Each concentration was performed in duplicate. The corresponding substrate and ATP were added and the mixture was reacted at room temperature for 120 minutes (with negative and positive controls). After completion of the reaction, PT66 detection antibody was added. The mixture was incubated at room temperature for 60 minutes, and then detected by Envision.
(§4) Data Calculation: the reading of well and inhibition rate were calculated using Excel, wherein reading of well=10000*(well EU665 value)/(well EU615 value), and inhibition rate=[(reading of positive control well−reading of assay well)/(reading of positive control well−reading of negative control well)]*100%. Compound concentrations and corresponding inhibition rates were input into GraphPad Prism for processing to calculate IC50 values.

HER2 kinase = target: T2, HER2 kinase (Homo sapiens, UniProt P04626); assay: HER2 kinase assay (ULight peptide / Eu-PT66 antibody detection); assay type: biochemical
T2 construct: purchased Carna Biosciences 08-016
T2 sequence (P04626 23-1255): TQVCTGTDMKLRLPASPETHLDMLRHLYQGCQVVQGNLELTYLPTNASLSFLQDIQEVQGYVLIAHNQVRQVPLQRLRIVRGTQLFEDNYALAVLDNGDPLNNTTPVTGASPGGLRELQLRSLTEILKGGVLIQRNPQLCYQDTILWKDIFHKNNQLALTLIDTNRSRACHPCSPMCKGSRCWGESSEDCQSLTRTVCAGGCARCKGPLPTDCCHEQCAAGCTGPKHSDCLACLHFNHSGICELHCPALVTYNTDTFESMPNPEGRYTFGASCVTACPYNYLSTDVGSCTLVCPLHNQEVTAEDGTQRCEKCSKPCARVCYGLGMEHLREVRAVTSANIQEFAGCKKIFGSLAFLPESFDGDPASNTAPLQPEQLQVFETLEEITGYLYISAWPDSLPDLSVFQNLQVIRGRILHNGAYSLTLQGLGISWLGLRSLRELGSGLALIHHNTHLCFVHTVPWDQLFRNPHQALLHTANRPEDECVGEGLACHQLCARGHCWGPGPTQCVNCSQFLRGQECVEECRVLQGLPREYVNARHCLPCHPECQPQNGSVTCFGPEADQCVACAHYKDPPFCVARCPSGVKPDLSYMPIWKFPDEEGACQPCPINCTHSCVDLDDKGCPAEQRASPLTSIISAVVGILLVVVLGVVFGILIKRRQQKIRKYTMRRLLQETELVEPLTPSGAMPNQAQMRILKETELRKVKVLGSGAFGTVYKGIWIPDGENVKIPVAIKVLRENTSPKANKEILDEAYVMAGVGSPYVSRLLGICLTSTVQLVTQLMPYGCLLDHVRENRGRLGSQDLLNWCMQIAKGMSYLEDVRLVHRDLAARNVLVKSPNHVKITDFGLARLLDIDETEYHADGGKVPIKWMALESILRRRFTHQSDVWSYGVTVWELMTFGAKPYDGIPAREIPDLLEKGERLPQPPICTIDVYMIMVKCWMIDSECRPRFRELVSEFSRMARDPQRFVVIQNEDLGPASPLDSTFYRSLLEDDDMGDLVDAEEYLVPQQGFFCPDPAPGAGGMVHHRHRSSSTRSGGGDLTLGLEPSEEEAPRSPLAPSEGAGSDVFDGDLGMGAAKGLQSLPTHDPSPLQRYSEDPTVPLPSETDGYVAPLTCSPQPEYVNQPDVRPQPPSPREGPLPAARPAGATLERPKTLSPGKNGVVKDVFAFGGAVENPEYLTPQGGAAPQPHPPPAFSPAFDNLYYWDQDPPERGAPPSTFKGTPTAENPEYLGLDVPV
From the text: as §1, §2
as §3, with “HER2 kinase” for “EGFR^WT kinase”, “and 40” for “and 3.48”, “4× HER2” for “4× EGFR”, “solution, 40” for “solution, 600”, “4×ULight™-labeled Ploy GT” for “4×ULight™-labeled JAK-1 (Try1023)”, “solution were” for “solution was”
as §4

HCC-827 cells = assay: Inhibition of cell proliferation, CTG method, HCC-827; assay type: cell-based; settings: Homo sapiens, HCC827, 72 hours
From the text: (§5) The present application examined the in vitro anti-proliferative activity of the compounds of the present disclosure against in vitro cultured HCC-827, Ba/F3-EGFR-VIII and Ba/F3 EGFR D770_N771insSVD cell lines by CTG method.
(§6) Reagents and consumables: RPMI1640 (ThermoFisher, Cat. No. C11875500BT); DMEM (ThermoFisher, C11995500BT); fetal bovine serum (Hyclone, Cat. No. SV30087.03); 0.25% trypsin-EDTA (ThermoFisher, Cat. No. 25200072); penicillin-streptomycin (Hyclone, Cat. No. SV30010); DMSO (Life Science, Cat. No. 0231-500ML); CTG assay kit (Promega, Cat. No. G9243); 96-well plate (Corning, Cat. No. 3599); multifunctional plate reader (Perkin Elmer, Cat. No. Envision)
(§7) Cell lines: HCC-827 (from ATCC), Ba/F3-EGFR-VIII and Ba/F3 EGFR D770_N771insSVD (all from KYinno Biotechnology (Beijing) Co., Ltd.); all of the above cells were cultured with RPMI1640 medium containing 10% fetal bovine serum, 100 U/mL penicillin, and 100 μg/mL streptomycin in the culture process, and HCC-827 was cultured with DMEM medium containing 10% fetal bovine serum, 100 U/mL penicillin, and 100 μg/mL streptomycin.
(§8) • 1. The assay compound was dissolved with DMSO to form a stock solution and a gradient dilution was performed, followed by dilution with the corresponding medium to obtain a solution with 5-fold working concentration. • 2. Cells in logarithmic growth phase were adjusted to specific cell densities by dilution with culture medium, and 80 μL of cell suspension was added to a 96-well plate, such that plating densities of cells of HCC-827, Ba/F3-EGFR-VIII and Ba/F3 EGFR D770_N771insSVD were all 3000 cells/well. The cells of Ba/F3-EGFR-VIII and Ba/F3 EGFR D770_N771insSVD were used directly in the next step (treatment with compound), whereas the HCC-827 needed to be cultured overnight in a 37° C., 5% carbon dioxide gas incubator to adhere to the wall, and then treated with compounds. • 3. 20 μL of compound solution was added to each well of the 96-well plate that had been inoculated with cells. The highest concentration of the assayed compound was 10 μM, 4-fold serial dilution, a total of 9 concentrations, and duplicate wells. A control group without compound was also set up. • 4. The cells were cultured for another 72 hours, and then cell viability was detected by CTG assay kit. Signal values were read with a multifunctional plate reader (Perkin Elmer). GraphPad Prism software was used to create a dose-response curve and IC50 was calculated.

[1] = target: Ba/F3 EGFR D770_N771insSVD cells (Homo sapiens, UniProt P00533, DUP768-770, cells depend on it); assay: Inhibition of cell proliferation, CTG method, Ba/F3 EGFR D770_N771insSVD; assay type: cell-based; settings: 72 hours, read-out: Ba/F3 EGFR D770_N771insSVD IC50
Ba/F3 EGFR D770_N771insSVD cells, sequence (P00533 with tags, fused parts or gaps DUP768-770): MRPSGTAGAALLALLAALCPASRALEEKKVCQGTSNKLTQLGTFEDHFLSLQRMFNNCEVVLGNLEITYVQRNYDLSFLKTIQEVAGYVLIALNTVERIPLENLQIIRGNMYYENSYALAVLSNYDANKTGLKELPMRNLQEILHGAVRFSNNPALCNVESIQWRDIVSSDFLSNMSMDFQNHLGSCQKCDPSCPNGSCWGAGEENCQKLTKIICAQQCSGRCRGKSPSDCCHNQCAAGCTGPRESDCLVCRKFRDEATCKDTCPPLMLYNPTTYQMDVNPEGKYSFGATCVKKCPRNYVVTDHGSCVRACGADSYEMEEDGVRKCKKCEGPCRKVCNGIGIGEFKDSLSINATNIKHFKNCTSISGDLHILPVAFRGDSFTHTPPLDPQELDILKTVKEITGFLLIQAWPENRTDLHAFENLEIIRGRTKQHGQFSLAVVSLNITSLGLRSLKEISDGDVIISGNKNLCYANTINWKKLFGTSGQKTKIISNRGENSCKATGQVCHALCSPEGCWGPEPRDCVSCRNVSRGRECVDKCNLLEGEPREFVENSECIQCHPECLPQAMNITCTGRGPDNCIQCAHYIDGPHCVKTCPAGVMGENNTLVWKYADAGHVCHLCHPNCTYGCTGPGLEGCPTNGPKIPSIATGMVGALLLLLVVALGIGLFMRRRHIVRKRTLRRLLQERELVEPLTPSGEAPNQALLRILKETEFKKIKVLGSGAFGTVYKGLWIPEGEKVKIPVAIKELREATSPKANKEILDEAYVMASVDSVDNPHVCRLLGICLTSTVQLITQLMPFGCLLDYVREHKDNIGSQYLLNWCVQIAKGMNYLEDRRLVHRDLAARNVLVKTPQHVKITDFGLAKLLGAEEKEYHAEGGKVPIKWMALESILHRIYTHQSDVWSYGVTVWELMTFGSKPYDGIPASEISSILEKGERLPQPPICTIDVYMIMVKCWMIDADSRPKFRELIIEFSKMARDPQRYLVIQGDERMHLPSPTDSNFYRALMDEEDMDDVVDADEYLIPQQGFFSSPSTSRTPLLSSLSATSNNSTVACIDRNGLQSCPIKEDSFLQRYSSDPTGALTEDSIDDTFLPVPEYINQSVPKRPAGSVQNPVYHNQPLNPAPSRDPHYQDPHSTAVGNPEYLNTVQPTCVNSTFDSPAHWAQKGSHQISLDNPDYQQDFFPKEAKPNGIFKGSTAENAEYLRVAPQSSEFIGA
From the text: as §5, §6, §7, §8

Ba/F3-EGFR-VIII cells = Ba/F3-EGFR-VIII cells (Homo sapiens, UniProt P00533, DELINS30-297G, cells depend on it); assay: Inhibition of cell proliferation, CTG method, Ba/F3-EGFR-VIII; assay type: cell-based; settings: 72 hours, read-out: Ba/F3 EGFRvIII IC50
Ba/F3-EGFR-VIII cells, sequence (P00533 with tags, fused parts or gaps DELINS30-297G): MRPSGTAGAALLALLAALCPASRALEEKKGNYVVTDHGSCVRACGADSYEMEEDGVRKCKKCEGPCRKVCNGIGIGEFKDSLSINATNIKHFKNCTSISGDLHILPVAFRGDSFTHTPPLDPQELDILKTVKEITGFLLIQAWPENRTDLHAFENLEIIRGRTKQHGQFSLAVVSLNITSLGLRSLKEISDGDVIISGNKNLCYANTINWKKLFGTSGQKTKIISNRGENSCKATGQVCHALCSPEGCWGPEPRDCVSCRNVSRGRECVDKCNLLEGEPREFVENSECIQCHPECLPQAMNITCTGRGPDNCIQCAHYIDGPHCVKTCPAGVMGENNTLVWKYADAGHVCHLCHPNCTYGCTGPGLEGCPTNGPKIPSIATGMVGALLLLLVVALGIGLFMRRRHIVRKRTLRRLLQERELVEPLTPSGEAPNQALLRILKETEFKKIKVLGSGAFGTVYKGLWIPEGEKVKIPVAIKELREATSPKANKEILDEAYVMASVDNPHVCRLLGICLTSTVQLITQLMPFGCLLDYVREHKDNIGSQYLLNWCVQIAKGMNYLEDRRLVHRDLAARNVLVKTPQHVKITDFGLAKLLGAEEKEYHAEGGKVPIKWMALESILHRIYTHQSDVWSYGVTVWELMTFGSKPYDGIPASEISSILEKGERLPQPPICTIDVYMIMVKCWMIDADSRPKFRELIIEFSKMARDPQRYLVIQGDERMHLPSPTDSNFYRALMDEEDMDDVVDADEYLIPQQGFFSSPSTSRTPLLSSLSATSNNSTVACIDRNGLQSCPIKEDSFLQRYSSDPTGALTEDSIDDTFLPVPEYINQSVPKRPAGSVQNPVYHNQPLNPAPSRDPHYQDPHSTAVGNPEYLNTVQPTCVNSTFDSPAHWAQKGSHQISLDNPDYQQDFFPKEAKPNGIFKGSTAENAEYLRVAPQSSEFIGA
From the text: as §5, §6, §7, §8

T1 sequence (P00533 25-1210): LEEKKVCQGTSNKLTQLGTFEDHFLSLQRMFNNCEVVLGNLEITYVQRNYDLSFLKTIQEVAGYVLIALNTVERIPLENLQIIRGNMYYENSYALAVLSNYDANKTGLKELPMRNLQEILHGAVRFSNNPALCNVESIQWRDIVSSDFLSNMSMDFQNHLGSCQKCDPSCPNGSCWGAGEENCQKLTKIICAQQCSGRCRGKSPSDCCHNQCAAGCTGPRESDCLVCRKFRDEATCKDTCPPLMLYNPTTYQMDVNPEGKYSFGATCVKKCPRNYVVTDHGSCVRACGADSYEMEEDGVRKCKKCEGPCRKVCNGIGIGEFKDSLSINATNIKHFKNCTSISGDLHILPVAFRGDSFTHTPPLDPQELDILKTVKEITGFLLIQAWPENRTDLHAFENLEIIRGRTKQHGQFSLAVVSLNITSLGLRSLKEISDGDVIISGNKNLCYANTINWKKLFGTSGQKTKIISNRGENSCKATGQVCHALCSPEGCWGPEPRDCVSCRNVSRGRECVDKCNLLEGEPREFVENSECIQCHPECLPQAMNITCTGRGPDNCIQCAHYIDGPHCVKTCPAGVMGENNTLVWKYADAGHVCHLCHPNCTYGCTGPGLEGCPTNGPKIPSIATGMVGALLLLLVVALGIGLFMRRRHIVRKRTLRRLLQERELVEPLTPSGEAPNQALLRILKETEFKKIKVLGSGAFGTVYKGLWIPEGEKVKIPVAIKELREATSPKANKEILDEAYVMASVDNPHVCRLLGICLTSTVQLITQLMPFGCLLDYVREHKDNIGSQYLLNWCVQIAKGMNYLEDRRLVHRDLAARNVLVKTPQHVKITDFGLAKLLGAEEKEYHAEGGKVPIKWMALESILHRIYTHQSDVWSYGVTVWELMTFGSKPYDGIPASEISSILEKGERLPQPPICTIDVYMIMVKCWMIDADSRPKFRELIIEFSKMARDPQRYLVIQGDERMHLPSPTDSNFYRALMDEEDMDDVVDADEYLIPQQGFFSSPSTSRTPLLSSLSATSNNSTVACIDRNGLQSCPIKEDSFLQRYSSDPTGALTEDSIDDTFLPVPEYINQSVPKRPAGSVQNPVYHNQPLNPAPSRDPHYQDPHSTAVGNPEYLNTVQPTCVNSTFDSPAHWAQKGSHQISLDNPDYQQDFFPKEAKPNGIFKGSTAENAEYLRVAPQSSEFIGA

SMILES	IC50 (EGFR^WT kinase)	IC50 (HER2 kinase)	IC50 (HCC-827 cells)	GI50 [1]	GI50 (Ba/F3-EGFR-VIII cells)
COc1c(NC(=O)/C=C/CNC(C)C)ccc2ncnc(Nc3cccc(Cl)c3F)c12 [Example 9, (E)-N-(4-((3-chloro-2-fluorophenyl)amino)-5-methoxyquinazolin-6-yl)-4-(isopropylamino)but-2-enamide]	≤ 1 nM	10 to 100 nM	≤ 5 nM	5 to 50 nM	≤ 5 nM
CN(C)C/C=C/C(=O)Nc1ccc2ncnc(Nc3cccc(Cl)c3F)c2c1OCCC(F)(F)F [Example 18, (E)-N-(4-((3-chloro-2-fluorophenyl)amino)-5-(3,3,3-trifluoropropoxy)quinazolin-6-yl)-4-(dimethylamino)but-2-enamide]	≤ 1 nM	100 to 1000 nM	≤ 5 nM	50 to 500 nM	5 to 50 nM
COc1c(NC(=O)/C=C/[C@H]2CCCN2C)ccc2ncnc(Nc3ccc(Cl)c(Cl)c3F)c12 [Example 20, (R,E)-N-(4-((3,4-dichloro-2-fluorophenyl)amino)-5-methoxyquinazolin-6-yl)-3-(1-methylpyrrolidin-2-yl)acrylamide]	≤ 1 nM	1 to 10 nM	≤ 5 nM	50 to 500 nM	
CN(C)C/C=C/C(=O)Nc1ccc2ncnc(Nc3cccc(Cl)c3F)c2c1OCC(F)(F)F [Example 16, (E)-N-(4-((3-chloro-2-fluorophenyl)amino)-5-(2,2,2-trifluoroethoxy)quinazolin-6-yl)-4-(dimethylamino)but-2-enamide]	≤ 1 nM	10 to 100 nM	≤ 5 nM	50 to 500 nM	5 to 50 nM
COc1c(NC(=O)/C=C/CN(C)C)ccc2ncnc(Nc3ccc(Cl)c(Cl)c3F)c12 [Example 19, (E)-N-(4-((3,4-dichloro-2-fluorophenyl)amino)-5-methoxyquinazolin-6-yl)-4-(dimethylamino)but-2-enamide]	≤ 1 nM	10 to 100 nM	≤ 5 nM	50 to 500 nM	5 to 50 nM
CN(C)C/C=C/C(=O)Nc1ccc2ncnc(Nc3cccc(Cl)c3F)c2c1OCCCS(C)(=O)=O [Example 7, (E)-N-(4-((3-chloro-2-fluorophenyl)amino)-5-(3-(methylsulfonyl)propoxy)quinazolin-6-yl)-4-(dimethylamino)but-2-enamide]	≤ 1 nM	100 to 1000 nM	≤ 5 nM		5 to 50 nM
CN(C)C/C=C/C(=O)Nc1ccc2ncnc(Nc3cccc(Cl)c3F)c2c1OCC(C)(C)O [Example 13, (E)-N-(4-((3-chloro-2-fluorophenyl)amino)-5-(2-hydroxy-2-methylpropoxy)quinazolin-6-yl)-4-(dimethylamino)but-2-enamide]	≤ 1 nM	10 to 100 nM	≤ 5 nM	50 to 500 nM	≤ 5 nM
CN(C)C/C=C/C(=O)Nc1ccc2ncnc(Nc3cccc(Cl)c3F)c2c1OCCCF [Example 15, (E)-N-(4-((3-chloro-2-fluorophenyl)amino)-5-(3-fluoropropoxy)quinazolin-6-yl)-4-(dimethylamino)but-2-enamide]	≤ 1 nM	10 to 100 nM	≤ 5 nM	50 to 500 nM	5 to 50 nM
COc1c(NC(=O)/C=C/CN(C)C2CC2)ccc2ncnc(Nc3cccc(Cl)c3F)c12 [Example 2, (E)-N-(4-((3-chloro-2-fluorophenyl)amino)-5-methoxyquinazolin-6-yl)-4-(cyclopropyl(methyl)amino)but-2-enamide]	1 to 10 nM	100 to 1000 nM	≤ 5 nM	50 to 500 nM	5 to 50 nM
CSCCOc1c(NC(=O)/C=C/CN(C)C)ccc2ncnc(Nc3cccc(Cl)c3F)c12 [Example 12, (E)-N-(4-((3-chloro-2-fluorophenyl)amino)-5-(2-(methylthio)ethoxy)quinazolin-6-yl)-4-(dimethylamino)but-2-enamide]	≤ 1 nM	10 to 100 nM	5 to 50 nM		5 to 50 nM
COCCOc1c(NC(=O)/C=C/[C@H]2CCCN2C)ccc2ncnc(Nc3ccc(Cl)c(Cl)c3F)c12 [Example 24, (R,E)-N-(4-((3,4-dichloro-2-fluorophenyl)amino)-5-(2-methoxyethoxy)quinazolin-6-yl)-3-(1-methylpyrrolidin-2-yl)acrylamide]	≤ 1 nM	10 to 100 nM	≤ 5 nM	50 to 500 nM	
CN(C)C/C=C/C(=O)Nc1ccc2ncnc(Nc3ccc(Cl)c(Cl)c3F)c2c1OCCO [Example 21, (E)-N-(4-((3,4-dichloro-2-fluorophenyl)amino)-5-(2-hydroxyethoxy)quinazolin-6-yl)-4-(dimethylamino)but-2-enamide]	≤ 1 nM	10 to 100 nM	≤ 5 nM	5 to 50 nM	
CN1CCC[C@@H]1/C=C/C(=O)Nc1ccc2ncnc(Nc3ccc(Cl)c(Cl)c3F)c2c1OCCO [Example 22, (R,E)-N-(4-((3,4-dichloro-2-fluorophenyl)amino)-5-(2-hydroxyethoxy)quinazolin-6-yl)-3-(1-methylpyrrolidin-2-yl)acrylamide]	≤ 1 nM	1 to 10 nM	≤ 5 nM	5 to 50 nM	
COCCOc1c(NC(=O)/C=C/CN(C)C)ccc2ncnc(Nc3ccc(Cl)c(Cl)c3F)c12 [Example 23, (E)-N-(4-((3,4-dichloro-2-fluorophenyl)amino)-5-(2-methoxyethoxy)quinazolin-6-yl)-4-(dimethylamino)but-2-enamide]	≤ 1 nM	10 to 100 nM	≤ 5 nM	50 to 500 nM	
